Assay results reported in patent US20260325504A1, “Genetically Engineered Human Pituitary Corticotroph Tumor Organoids Exhibit Divergent Responses to Selective Glucocorticoid Receptor Modulators” (Corcept Therapeutics Incorporated, priority 2022, published 2026).
Entries after “also recorded” stand apart in the source; their conditions may differ.

How the values were obtained:
Format in all cases: cell-based, human
hPITO = assay: Spectral flow cytometry, Zombie positive cells (cell death), hPITOs; conditions: 48 h, FIGS. 9K, L
Excerpt: (§1) 1.3 Generation and Culture of Human PitNET Tissue Organoids (hPITOs)
(§2) Patients undergoing planned transsphenoidal surgery for PitNETs were identified in the outpatient neuroendocrinology and neurosurgery clinics and collected by the St. Joseph's Hospital and Barrow Neurological Institute Biobank under the collection protocol PHXA-05TS038, and outcomes data protocol PHXA-0004-72-29 with approval of the Institutional Review Board (IRB) and patient consent. De-identified samples were shipped in collection and transport media (Table 3) to the Zavros laboratory (University of Arizona) for processing within 24 hours of collection. Resected PitNET tissues were washed with Dulbeccos Phosphate Buffered Saline (DPBS) supplemented with 1× Penicillin/Streptomycin, 1× Kanamycin and 1× Amphotericin/Gentamycin, minced into smaller pieces, and incubated with digestion buffer (Dulbecco's Modified Eagle Medium/Nutrient Mixture F-12 (DMEM/F12) supplemented with 0.4% Collagenase 2, 0.1% Hyaluronic Acid, 0.03% Trypsin). The tissue was incubated with Accutase (Thermo Fisher Scientific) for a further 5 minutes, and the cells were pelleted and washed with DPBS supplemented with antibiotics. Dissociated cells were then seeded as Matrigel™ domes in culture dishes and overlaid with growth media (Table 4). Media was replaced every 3 days and organoids were harvested for downstream experiments or passaged after 15 days of culture (FIG. 1B).
(§3) Sonic Hedgehog (SHH) was withdrawn from the organoid growth media 16 hours prior to treatment. The experimental treatment groups included: vehicle (Veh), mifepristone (500 nM, Selleckchem S2606), GANT61 (5 μM, Stemcell Technologies 73692), ketoconazole (Keto, 10 μM, Selleckchem S1353), pasireotide (Pas, 100 nM, Target Mol TP2207-SB001), octreotide (Oct, 100 nM, Selleckchem P1017), mifepristone plus GANT61, mifepristone plus Keto, mifepristone plus Pas, relacorilant (500 nM, Corcept Therapeutics CORT125134), relacorilant plus Pas, relacorilant plus Oct, or dexamethasone (Dexa, 100 nM, SIGMA S4902). In the combination treatments, cultures were pretreated with the GANT61, Keto, Pas or Oct for 2 hours prior to treatment with mifepristone or Rela. PitNET tissue derived organoids hPITO36, hPITO37, hPITO38, hPITO39, and hPITO40 were treated with the following experimental conditions: Vehicle (1), pasireotide (2), relacorilant (3), relacorilant & pasireotide (4), mifepristone (5), mifepristone & pasireotide (6). The IC50 values used for each hPITO line for each drug were determined based on dose responses (FIG. 12). All organoid cultures were treated for 48 hours prior to analysis.
The multicolor flow cytometry antibody panel was designed using the Cytek® Full Spectrum Viewer online tool to calculate the similarity index. Organoids were harvested in cold Serum-Free Defined Medium media and incubated with Zombie (BioLegend 423107, 1:100) for 15 minutes in the dark at room temperature, followed by incubation with fluorochrome-conjugated/unconjugated primary surface or cytoplasmic antibodies (Table 6) at 4° C. for 30 minutes. Cells were then washed with Cell Staining Buffer (BioLegend 420-201) and incubated at 4° C. for 30 minutes with secondary antibodies (Table 6). Cells were fixed using Cytofix/Cytoperm™ Fixation/Permeabilization Solution (BD Biosciences 554714) and washed with Fixation/Permeabilization wash buffer according to the recommended protocol. […]

ACTH = assay: Spectral flow cytometry, ACTH positive cells, hPITOs
Excerpt: as §1, §2
Sonic Hedgehog (SHH) was withdrawn from the organoid growth media 16 hours prior to treatment. […] The IC50 values used for each hPITO line for each drug were determined based on dose responses (FIG. 12). […]

iPSC^ctrl organoids = assay: EdU uptake (proliferation) in iPSCctrl organoids; conditions: compound alone, 500 nM, 48 h
Procedure: iPSCs were stained for pituitary specific hormones including luteinizing hormone (LH), follicle-stimulating hormone (FSH), growth hormone (GH), prolactin (PRL), ACTH, cytokeratin 8/18 (CAM5.2), pituitary transcription factor PIT-1 and neuroendocrine marker Synaptophysin (Table 5). Cultures were immunostained for proliferation marker EdU (Click-IT EdU Alexa Fluor 555 Imaging Kit, Thermo Fisher Scientific C10338). Antibody dilutions were determined based on manufacturer guidelines and antibody titration (Table 5). Staining was conducted according to previously published protocols. Briefly, organoids and iPSCs grown in 8-well glass bottom chamber slides were fixed using 3.7% formaldehyde, washed with DPBS, permeabilized with 0.5% Triton X-100 (SIGMA X-100, PBS-T, 20 min at room temperature), washed with 0.01% PBS-T, and blocked with 2% donkey serum (Jackson Immuno Research 017-000-121) for 1 hour at room temperature. After blocking, primary antibodies were added and incubated overnight at 4° C. Slides were washed with 0.01% PBS-T and incubated with secondary antibodies (Table 5) with Hoechst (Thermo Fisher Scientific H1399) for 1 hour at room temperature. Organoids were washed and stored in PBS at 4° C. until microscopic analysis. High content confocal microscopy was performed using the Nikon Ti2-E Inverted Microscope (with a Crest X-Light V2 L-FOV Spinning Disk Confocal) at the University of Arizona Cancer Center, or a ZEISS LSM880 34 channel Laser Scanning Confocal Microscope at University of Arizona Marley Imaging Core. Fluorescence intensity was quantified as the percentage of marker-positive cells versus total cells, using Nikon Elements Software (Version 5.21.05). Proliferation for each iPSC line was quantified as the percentage of EdU-positive cells versus total cells.
as §3, with “PitNET tissue derived organoids hPITO36, hPITO37, hPITO38, hPITO39, and hPITO40 were treated with the following experimental conditions: Vehicle (1), pasireotide (2), relacorilant (3), relacorilant & pasireotide (4), mifepristone (5), mifepristone & pasireotide (6).” left out, “All organoid cultures were treated for 48 hours prior to analysis.” left out

SMILES	cell death (Zombie positive cells) (hPITO)	number of ACTH expressing cells / ACTH (ACTH; hPITO, 48 h, FIGS. 9I, J)	proliferation (EdU uptake) (iPSC^ctrl organoids)	cell death in epithelial/mesenchymal hybrid cell population (CK20, vimentin, CXCR4) (hPITO)	cell death in populations expressing stem cell markers SOX2, CXCR4 and nestin (hPITO)	cell death (Zombie positive cells) (hPITO; listed as Relacorilant)	sensitization of organoids to pasireotide (ACTH; CD PitNET tissue derived organoids)
CC#C[C@]1(O)CC[C@H]2[C@@H]3CCC4=CC(=O)CCC4=C3[C@@H](c3ccc(N(C)C)cc3)C[C@@]21C [mifepristone, 11β-(4-dimethylaminophenyl)-17ß-hydroxy-17α-(1-propynyl)-estra-4,9-dien-3-one]	not observed	significantly increased the number of ACTH expressing cells	significant increase in cell proliferation				
Cn1cc(S(=O)(=O)N2CCC3=Cc4c(cnn4-c4ccc(F)cc4)C[C@]3(C(=O)c3cc(C(F)(F)F)ccn3)C2)cn1 [relacorilant, (R)-(1-(4-fluorophenyl)-6-((1-methyl-1H-pyrazol-4-yl)sulfonyl)-4,4a,5,6,7,8-hexahydro-1H-pyrazolo[3,4-g]isoquinolin-4a-yl) (4-(trifluoromethyl)pyridin-2-yl) methanone]	significant increase in cell death		did not induce organoid proliferation	significant cell death	significant cell death	Induces Tumor Cell Death; also recorded: significant increase in Zombie positive cells	sensitizes CD PitNET tissue derived organoids to pasireotide; also recorded: sensitized organoid tumor cells to suppression of ACTH by pasireotide
